Tests used:
[1] = Inhibition of Paracentrotus lividus embryo division
[2] = Inhibition of Paracentrotus lividus embryo division at 250 ug/mL

ED100 [1]	Activity [2]	SMILES
30 µg/mL	–	CC[C@H](C)[C@H]1NC(=O)c2coc(n2)[C@H](C)NC(=O)[C@H]2COC(=N2)[C@@H](Cc2ccccc2)NC(=O)c2csc1n2 [RAOCYCLAMIDE A]
–	Not Active	CC[C@H](C)[C@H]1NC(=O)c2coc(n2)[C@H](C)NC(=O)[C@@H](CO)NC(=O)[C@@H](Cc2ccccc2)NC(=O)c2csc1n2 [RAOCYCLAMIDE B]

From ChEMBL document CHEMBL1158208, “Raocyclamides A and B, Novel Cyclic Hexapeptides Isolated from the Cyanobacterium Oscillatoria raoi” (J Nat Prod, 1996)
